The text below walks through data of article PMC9959130, “Effects of Side Chain and Peptide Bond Modifications on the Targeting Properties of Stabilized Minigastrin Analogs” (Pharmaceuticals, 2023).

Like-named read-outs stand apart in the source and are kept apart here. Where a SMILES comes first, the peptide text is derived from it. [ ]: non-standard residue; d: D form. The star is where a group is joined. DOTA = O=C(O)CN1CCN(CC(=O)O)CCN(CC(=O)*)CCN(CC(=O)O)CC1; 1Nal = N[C@@H](Cc1cccc2ccccc12)C(=O)O; NMeNle = CCCC[C@H](NC)C(=O)O

Data set [1] can be described thus: In vitro stability in human serum (intact radiopeptide by radio-HPLC). The data set is classed as in vitro ADME. The settings on record: fresh human serum, 37 °C, n = 2; for remaining at 24 h, 1000 pmol/mL: radiolabeled peptide (111In where no radiometal named), 24 h after incubation. As for the experimental part:
In vitro stability studies were performed in human serum (n = 2). The radiolabeled peptides (1000 pmol/mL) were incubated at 37 °C and a sample of 100 μL was taken at 1, 4, and 24 h after incubation. After the precipitation of proteins with ACN at 1:1.5 (v/v), centrifugation (14,000 rpm, 2 min, centrifuge 5424, Eppendorf AG, Germany) and dilution with water at 1:1 (v/v), an aliquot of 100 μL of this solution was analyzed by HPLC. Radioligand breakdown was monitored and the percentage of intact radiopeptide was calculated using Chromeleon Dionex Software (Version 7.2.9.11323). Additionally, the radiolabeled peptides (1000 pmol/mL) were incubated in PBS (n = 1) at room temperature to confirm the complex stability as a control.

Data set [2] is described as follows: Distribution coefficient (LogD) in octanol/PBS. The conditions noted are these: radiolabeled peptide (111In-labeled where the label names no radiometal); shake-flask octanol/PBS, 100 pmol/mL, 15 min shaking at 1500 rpm, γ-counter; mean ± SD, n = 8; read-out: LogD. The data set is classed as physicochemical. As for the experimental part: The distribution coefficient (LogD) in octanol/PBS was determined by mixing 0.5 mL of the radiolabeled DOTA peptides diluted in PBS (100 pmol/mL) and 0.5 mL octanol in a 1.5 mL microcentrifuge tube (n = 8). After shaking for 15 min (MS3 Basic, IKA, Staufen, Germany) at 1500 rpm and a waiting time of 10 min to ensure appropriate separation of the two phases, 100 µL aliquots of each phase were pipetted into 4.5 mL tubes. The tubes were measured using a γ-counter (2480 Wizard2 3″, PerkinElmer Life Sciences and Analytical Instruments, formerly Wallac Oy, Turku, Finland) and the LogD value was determined using following equation: LogD=Log(cpmoctanol phase/cpmPBS phase)

Data set [3] can be described thus: Binding to serum proteins (incubation in human serum, Sephadex G-50 size exclusion chromatography). The data set is classed as in vitro ADME. The conditions noted are these: 37 °C; for fraction unbound at 24 h, 500 pmol/mL: radiolabeled peptide (111In where no radiometal named), 24 h after incubation, Sephadex G-50, γ-counter, n = 2. The procedure:
Protein binding was determined by incubation of the radiolabeled peptides in human serum at 37 °C (500 pmol/mL, n = 2). For the time points of 1, 4, and 24 h after incubation, samples of 25 µL were subjected to Sephadex G-50 size exclusion chromatography (GE Healthcare Illustra, Little Chalfont, UK). The column and the eluate were measured using the γ-counter and the percentage of protein binding was calculated.
On the technique in general: SEC sorts molecules by how far they enter the pores of the column.

Data set [4] can be described thus: Biodistribution in BALB/c nude mice bearing A431-CCK2R/A431-mock xenografts. The settings on record: female, athymic BALB/c nude, mouse, iv, 20 pmol, total radioactivity, ~20 pmol, 4 h p.i. (indium-111 or lutetium-177), mean ± SD n = 4; for tissue to tissue ratio at 4 h: BALB/c nude mice; for tissue uptake at 4 h: xenografted BALB/c nude mice, i.v. The data set is classed as in vivo. As for the experimental part:
The overall biodistribution and tumor targeting properties of selected radiolabeled peptides were evaluated in female athymic BALB/c nude mice (Charles River, Sulzfeld, Germany, age of 7 to 9 weeks). After tumor induction with 2 × 10^6 A431-CCK2R or A431-mock cells (subcutaneously injected in 200 μL DMEM into the right and left flank) and a waiting period of 10–14 days (sufficient to achieve tumors of ∼0.25 g), mice were randomly divided into groups of four and treated with a bolus injection of 150 µL of the injectable solution containing the radiolabeled peptide via a lateral tail vein to achieve an injected radioactivity of 150–200 kBq and a total injected peptide amount of ~20 pmol (n = 4 for each radiopeptide). For DOTA-[(N-Me)1Nal^8]MGS5, additional biodistribution studies were performed with gallium-68 (~0.5 MBq, 20 pmol) and lutetium-177 (~0.5 MBq, 20 pmol). The animals were euthanatized by cervical dislocation at 1 h (gallium-68) or 4 h p.i. (indium-111/ lutetium-177). The tumors and other tissues (blood, lung, heart, muscle, spleen, intestine, liver, kidney, stomach, and pancreas) were dissected, weighed, and the radioactivity measured in the γ-counter. The rest of the body and a standard of the solution injected was also measured together with the collected samples. The percentage of injected activity per gram of tissue (% IA/g) and the tumor-to-organ activity ratio of selected tissues were calculated for each mouse and time point studied. Origin software (Microcal Origin 6.1, Northampton, MA, USA) was used for statistical analysis (independent t-test for two populations; significance level p < 0.05).

Where [5] appears, read: A431-CCK2R xenograft / blood, A431-CCK2R xenograft, read-out: tumor-to-organ ratio: blood.
Where [6] appears, read: A431-CCK2R xenograft / kidney, A431-CCK2R xenograft, read-out: tumor-to-organ ratio: kidney.
Setting [7] is: A431-CCK2R xenograft / stomach, A431-CCK2R xenograft, read-out: tumor-to-organ ratio: stomach.
[8] abbreviates: A431-CCK2R xenograft, read-out: Uptake in A431-CCK2R xenograft.
The mark [9] stands for this setting: A431-mock xenograft, read-out: Uptake in A431-mock xenograft.
Where [10] appears, read: blood, read-out: Uptake in blood.
[11] abbreviates: heart, read-out: Uptake in heart.
The mark [12] stands for this setting: intestine, read-out: Uptake in intestine.
Where [13] appears, read: kidneys, read-out: Uptake in kidneys.
[14] abbreviates: liver, read-out: Uptake in liver.
The mark [15] stands for this setting: muscle, read-out: Uptake in muscle.
[16] abbreviates: pancreas, read-out: Uptake in pancreas.
Where [17] appears, read: spleen, read-out: Uptake in spleen.
The mark [18] stands for this setting: stomach, read-out: Uptake in stomach.

Consider `CCCC[C@@H](C(=O)N[C@@H](CC(=O)O)C(=O)N[C@@H](Cc1ccccc1)C(N)=O)N(C)C(=O)[C@H](Cc1c[nH]c2ccccc12)NC(=O)CNC(=O)[C@H](Cc1ccc(O)cc1)NC(=O)[C@H](C)NC(=O)[C@@H](CCC(=O)O)NC(=O)CN1CCN(CC(=O)O)CCN(CC(=O)O)CCN(CC(=O)O)CC1` [[^111In]In-DOTA-[Phe^8]MGS5, metal not drawn] ({DOTA}-[dE]AYGW[NMeNle]DF-NH2), for which the fraction remaining at 1 h, 1000 pmol/mL in data set [1] (human, radiolabeled peptide, 1 h after incubation) was determined as 99.5 ± 0.7%. Moreover, the amount remaining at 4 h, 1000 pmol/mL in data set [1] (human, radiolabeled peptide, 4 h after incubation) came out at 92.5 ± 0.7%. Besides, the fraction remaining at 24 h, 1000 pmol/mL in data set [1] was 54 ± 0.8%. In addition, the LogD in data set [2] is -3.19 ± 0.06. Further, the fraction unbound at 1 h, 500 pmol/mL in data set [3] (human, radiolabeled peptide, 1 h after incubation, Sephadex G-50, n = 2) is 0.919. Moreover, the fraction unbound at 4 h, 500 pmol/mL in data set [3] (human, radiolabeled peptide, 4 h after incubation, Sephadex G-50, n = 2) was 0.882. This molecule gave a fraction unbound at 24 h, 500 pmol/mL in data set [3] of 0.798.
As for `CCCC[C@@H](C(=O)N[C@@H](CC(=O)O)C(=O)N[C@@H](Cc1ccc2ccccc2c1)C(N)=O)N(C)C(=O)[C@H](Cc1c[nH]c2ccccc12)NC(=O)CNC(=O)[C@H](Cc1ccc(O)cc1)NC(=O)[C@H](C)NC(=O)[C@@H](CCC(=O)O)NC(=O)CN1CCN(CC(=O)O)CCN(CC(=O)O)CCN(CC(=O)O)CC1` [[^111In]In-DOTA-[2Nal^8]MGS5, metal not drawn], the tissue to tissue ratio at 4 h came to 399 ± 89.6 in data set [4] (setting [5]), 6.04 ± 0.87 in data set [4] (setting [6]) and 3.66 ± 0.64 in data set [4] (setting [7]). Further, the tissue uptake at 4 h amounted to 25.4 ± 4.45 %ID/g in data set [4] (setting [8]); 0.17 ± 0.04 %ID/g in data set [4] (setting [9]); 0.06 ± 0.003 %ID/g in data set [4] (setting [10]); 0.08 ± 0.01 %ID/g in data set [4] (setting [11]); 0.95 ± 0.26 %ID/g in data set [4] (setting [12]); 4.21 ± 0.29 %ID/g in data set [4] (setting [13]). Besides, the tissue uptake at 4 h in data set [4] (setting [14]) came out at 0.66 ± 0.07 %ID/g; in data set [4] (lung, read-out: Uptake in lung), 0.13 ± 0.03 %ID/g; in data set [4] (setting [15]) it was 0.04 ± 0.01 %ID/g; in data set [4] (setting [16]), 1.84 ± 0.52 %ID/g; in data set [4] (setting [17]), 0.18 ± 0.05 %ID/g; in data set [4] (setting [18]) it was 7.03 ± 1.1 %ID/g. For the same molecule, the amount remaining at 24 h, 1000 pmol/mL in data set [1] was > 90%. In addition, the LogD in data set [2] was -1.71 ± 0.19.
With `CCCC[C@@H](C(=O)N[C@@H](CC(=O)O)C(=O)N[C@@H](Cc1cccc2ccccc12)C(=O)NC)N(C)C(=O)[C@H](Cc1c[nH]c2ccccc12)NC(=O)CNC(=O)[C@H](Cc1ccc(O)cc1)NC(=O)[C@H](C)NC(=O)[C@@H](CCC(=O)O)NC(=O)CN1CCN(CC(=O)O)CCN(CC(=O)O)CCN(CC(=O)O)CC1` [[^111In]In-DOTA-MGS5[NHCH3], metal not drawn], the tissue to tissue ratio at 4 h in data set [4] (setting [5]) came to 69.9 ± 38.3; in data set [4] (setting [7]), 4.33 ± 0.56. The tissue uptake at 4 h turned out to be 4.16 ± 1.01 %ID/g in data set [4] (setting [8]); 0.19 ± 0.08 %ID/g in data set [4] (setting [9]); 0.08 ± 0.07 %ID/g in data set [4] (setting [10]); 0.06 ± 0.02 %ID/g in data set [4] (setting [11]); 0.59 ± 0.46 %ID/g in data set [4] (setting [12]); 4.42 ± 1.15 %ID/g in data set [4] (setting [13]). Moreover, the tissue uptake at 4 h in data set [4] (setting [14]) was found to be 0.36 ± 0.11 %ID/g; in data set [4] (lung, read-out: Uptake in lung), 0.07 ± 0.01 %ID/g; in data set [4] (setting [15]) it was 0.04 ± 0.02 %ID/g; in data set [4] (setting [16]), 0.4 ± 0.04 %ID/g; in data set [4] (setting [17]), 0.13 ± 0.02 %ID/g; in data set [4] (setting [18]) it was 0.96 ± 0.17 %ID/g. Further, the LogD in data set [2] was -2.33 ± 0.23. In data set [3], this molecule gave a fraction unbound at 24 h, 500 pmol/mL of 0.591.
On to `CCCC[C@@H](C(=O)N[C@@H](CC(=O)O)C(=O)N[C@@H](Cc1cccc2ccccc12)C(N)=O)N(C)C(=O)[C@H](Cc1c[nH]c2ccccc12)NC(=O)CNC(=O)[C@H](Cc1ccc(O)cc1)NC(=O)[C@H](C)NC(=O)[C@@H](CCCCN)NC(=O)CN1CCN(CC(=O)O)CCN(CC(=O)O)CCN(CC(=O)O)CC1` [[^111In]In-DOTA-[DLys^1]MGS5, metal not drawn] ({DOTA}-[dK]AYGW[NMeNle]D[1Nal]-NH2), for which the values for the tissue to tissue ratio at 4 h in data set [4] (setting [5]), in data set [4] (setting [6]) and in data set [4] (setting [7]) were 176 ± 31.9, < 2 and 4.69 ± 1.19, respectively. Besides, the tissue uptake at 4 h in data set [4] (setting [8]) was 33.9 ± 9.53 %ID/g; in data set [4] (setting [9]), 0.56 ± 0.27 %ID/g; in data set [4] (setting [10]) it was 0.2 ± 0.09 %ID/g; in data set [4] (setting [11]), 0.22 ± 0.06 %ID/g; in data set [4] (setting [12]) it was 1.96 ± 0.87 %ID/g; in data set [4] (setting [13]) it was ~20 %ID/g. For the same molecule, the tissue uptake at 4 h worked out at 1.94 ± 0.52 %ID/g in data set [4] (setting [14]); 0.3 ± 0.11 %ID/g in data set [4] (lung, read-out: Uptake in lung); 0.13 ± 0.05 %ID/g in data set [4] (setting [15]); 2.27 ± 1.2 %ID/g in data set [4] (setting [16]); 0.54 ± 0.12 %ID/g in data set [4] (setting [17]); 7.73 ± 3.49 %ID/g in data set [4] (setting [18]). Moreover, in data set [2], the LogD was -1.31 ± 0.11.

What is called amount remaining is what is left of the initial amount, in per cent. Low readings indicate a greater loss, high ones greater stability. As a reminder, the fraction unbound is the share of the substance not bound to proteins or other matrix. Low readings indicate little free substance, high ones much free substance.
